Patent US9427458B2, “Methods for inhibiting cancer cell proliferation” (Consejo Nacional de Investigaciones Cientificas y Tecnicas, …, priority 2010, dated 2016)
Entries after “also recorded” stand apart in the source; their conditions may differ.

Tests used:
ErbB-2 [1] = assay: ErbB-2 cellular localization (subcellular fractionation/immunoblot, confocal microscopy) in C4HD cells; assay type: cell-based, mouse; conditions: MPA treatment of C4HD cells, 15 to 60 min
Procedure: (§1) Lysates were prepared from cells subjected to the different treatments and proteins were subjected to SDS-PAGE as previously described (21). Membranes were immunoblotted with the antibodies detailed in each experiment. When phospho(p)-protein antibodies were used, filters were reprobed with total protein antibodies. Signal intensities of pErbB-2, pStat3, pSrc, pPR, pJak1, and pJak2 bands were analyzed by densitometry and normalized to total protein bands. Similarly, signal intensities of PR, cyclin D1, Stat3, and ErbB-2 bands were normalized to actin or β tubulin bands. […]
(§2) Cells grown on glass coverslips were fixed and permeabilized in ice-cold methanol and were then blocked with PBS 1% BSA. ErbB-2 was localized using either a rabbit polyclonal (C-18) or a mouse monoclonal (F-11) ErbB-2 antibody (Santa Cruz Biotechnology) and Stat3 was detected using a mouse monoclonal antibody (124H6, Cell Signaling), followed by incubation with a goat anti-rabbit IgG-Alexa 488 (Molecular Probes, Eugene, Oreg.) secondary antibody for ErbB-2 (C-18) and with a rhodamine conjugated goat anti-mouse secondary antibody (Jackson ImmunoResearch Laboratories, West Grove, Pa.) for both ErbB2 (F-11) and Stat3. […] When cells were transfected with hErbB-2ΔNLS, green fluorescent protein from this expression vector was visualized by direct fluorescence imaging. […]

human cyclin D1 promoter = assay: ChIP of Stat3 and ErbB-2 on the human cyclin D1 promoter in T47D cells; assay type: cell-based; conditions: MPA 30 min, primers flanking the −984 GAS site
Procedure: (§3) ChIP was performed as described elsewhere (Hawthorne et al., 2005) with minor modifications. Briefly, chromatin was sonicated to an average of about 500 bp. Sonicated chromatin was then immunoprecipitated using 4 μg of either an anti-ErbB-2 or an anti-Stat3 antibody and rabbit IgG as control. The IP was collected using Protein A beads (Upstate Biotechnology, Lake Placid, N.Y.), which were washed repeatedly to remove nonspecific DNA binding. The chromatin was eluted from the beads and crosslinks were removed overnight at 65° C. DNA was then purified and quantified using real-time PCR. For sequential ChIP experiments, Stat3 immunoprecipitates were eluted with DTT and then subjected to a second round of immunoprecipitation with ErbB-2 antibody or with IgG.
(§4) ChIP DNA was amplified by real-time PCR (qPCR), performed with an ABI Prism 7500 sequence detector using SYBR green PCR master mix (Applied Biosystems, Foster City, Calif.). The primers used were as follows: 5′-TTCCGGTGGTCTGGTTCCT-3′ (SEQ ID NO:12) and 5′-[…]-3′(SEQ ID NO:13) designed to amplify a region of the mouse cyclin D1 promoter containing two GAS sites (−971 and −874), 5′-[…]-3′(SEQ ID NO:14) and 5′-[…]-3′ (SEQ ID NO:15) designed to amplify a region of the human cyclin D1 promoter containing one GAS site (−984). These primers were designed with “Primer Express” real-time PCR primer design software (Applied Biosystems). […]

ErbB-2 [2] = assay: ErbB-2 tyrosine phosphorylation by Western blot in C4HD cells; assay type: cell-based, mouse; conditions: MPA treatment of C4HD cells
Procedure: (§5) Primary cultures of epithelial cells from C4HD tumors were performed as described (2). T47D cells were obtained from American Type Culture Collection and T47D-Y cells were a generous gift from Dr. K. Horwitz (Denver, Colo.). To evaluate the effects of the pharmacological inhibitors on MPA-induced proteins phosphorylation or cyclin D1 expression, cells were preincubated for 90 min with RU486, PP2, Tyrphostin AG825 or Jak inhibitor I before addition of MPA. Cell proliferation was evaluated by [3H]-thymidine incorporation assay and cell cycle distribution was analyzed by flow cytometry, as described (22).
(§6) Lysates were prepared from cells subjected to the different treatments and proteins were subjected to SDS-PAGE as previously described (21). Membranes were immunoblotted with the antibodies detailed in each experiment. When phospho(p)-protein antibodies were used, filters were reprobed with total protein antibodies. Signal intensities of pErbB-2, pStat3, pSrc, pPR, pJak1, and pJak2 bands were analyzed by densitometry and normalized to total protein bands. Similarly, signal intensities of PR, cyclin D1, Stat3, and ErbB-2 bands were normalized to actin or β tubulin bands. […] The NEPER Nuclear and Cytoplasmic Extraction Reagents technique (Pierce Biotechnology) was performed as per manufacturer's instructions. […]

cyclin D1 promoter [3] = assay: Human cyclin D1 promoter luciferase reporter in T47D cells; assay type: cell-based; conditions: MPA 24 h, versus cells untreated with MPA
Excerpt: The luciferase reporter plasmid downstream the cyclin D1 human promoter region (−1745 cyclin D1-luc), and constructs truncated at positions −963, −261, −141, were kindly provided by Dr. R. Pestell (Northwestern University Medical School, Chicago, Ill.). These constructs were generated by truncation of the 1745-bp length promoter in order to sequentially exclude 5′ regions of the promoter. The −963 cyclin D1-luc construct excludes one GAS site (−984), the −261 cyclin D1-luc excludes three GAS sites (−984, −568 and −475) and the −141 cyclin D1-luc excludes four GAS sites (−984, −568, −475 and −239). The empty vector pA3 Luc was also provided by Dr. R. Pestell. The luciferase reporter plasmid containing four copies of the m67 high-affinity binding site (p4×m67-tk-luc) and the pTATA-tk-Luc reporter lacking the m67 insertion were a gift from Dr J. Darnell (The Rockefeller University, New York, N.Y.). The Renilla luciferase expression plasmid RLCMV was obtained from Promega (Madison, Wis.). […] Triplicate samples were analyzed for each datum point. Differences between experimental groups were analyzed by ANOVA followed by Tukey test between groups.

ErbB-2 [4] = assay: ErbB-2 tyrosine phosphorylation by Western blot in T47D cells; assay type: cell-based, human; conditions: MPA
Procedure: as §5
(§7) Lysates were prepared from cells subjected to the different treatments and proteins were subjected to SDS-PAGE as previously described (21). Membranes were immunoblotted with the antibodies detailed in each experiment. When phospho(p)-protein antibodies were used, filters were reprobed with total protein antibodies. Signal intensities of pErbB-2, pStat3, pSrc, pPR, pJak1, and pJak2 bands were analyzed by densitometry and normalized to total protein bands. Similarly, signal intensities of PR, cyclin D1, Stat3, and ErbB-2 bands were normalized to actin or β tubulin bands. […] The NEPER Nuclear and Cytoplasmic Extraction Reagents technique (Pierce Biotechnology) was performed as per manufacturer's instructions. Nuclear association between ErbB-2 and Stat3 was studied by performing coimmunoprecipitation experiments using 200 μg of nuclear protein lysates as described (22).

cyclin D1 promoter [5] = assay: Human cyclin D1 promoter luciferase reporter in C4HD cells; assay type: cell-based, mouse; conditions: MPA 24 h, versus cells untreated with MPA
Excerpt: The luciferase reporter plasmid downstream the cyclin D1 human promoter region (−1745 cyclin D1-luc), and constructs truncated at positions −963, −261, −141, were kindly provided by Dr. R. Pestell (Northwestern University Medical School, Chicago, Ill.). These constructs were generated by truncation of the 1745-bp length promoter in order to sequentially exclude 5′ regions of the promoter. The −963 cyclin D1-luc construct excludes one GAS site (−984), the −261 cyclin D1-luc excludes three GAS sites (−984, −568 and −475) and the −141 cyclin D1-luc excludes four GAS sites (−984, −568, −475 and −239). The empty vector pA3 Luc was also provided by Dr. R. Pestell. The luciferase reporter plasmid containing four copies of the m67 high-affinity binding site (p4×m67-tk-luc) and the pTATA-tk-Luc reporter lacking the m67 insertion were a gift from Dr J. Darnell (The Rockefeller University, New York, N.Y.). The Renilla luciferase expression plasmid RLCMV was obtained from Promega (Madison, Wis.). Dominant negative Stat3 expression vector, Stat3Y705-F, which carries a tyrosine to phenylalanine substitution at codon 705 that reduces phosphorylation on tyrosine of the wild-type Stat3 protein, therefore inhibiting both dimerization and DNA binding of Stat3 (6,7,16) was kindly provided by Dr J. Darnell (New York, USA). The empty pcDNA3.1 vector was also a gift of Dr J. Darnell. Human wild-type ErbB-2 expression vector (hErbB-2WT) as well as the empty pMe18SM vector were a gift from by Dr. T. Yamamoto (University of Tokyo, Japan) (1). The GFP-tagged human ErbB-2 mutant which lacks the putative nuclear localization signal sequence (aa 676-KRRQQKIRKYTMRR-689) (SEQ ID NO:3), resulting in the sequence of KLM at the deletion junction (hErbB-2ΔNLS), was generously provided by Dr. M. C. Hung (The University of Texas M.D. Anderson Cancer Center, Houston, Tex.) (Giri et al., 2005). The empty pEGFP-N1 vector was obtained from BD Biosciences Clontech (Palo Alto, Calif.). The plasmid encoding the human wild-type hPR-B was kindly provided by Dr. K. Horwitz. In experiments assessing MPA capacity to induce the transcriptional activation of Stat3, C4HD and T47D cells were transiently transfected for 48 h with 1 μg of −1745 cyclin D1-luc reporter plasmid or the truncated −963, −261 and −141 constructs, or with 1 μg p4×m67-tk-luc and 10 ng of RL-CMV used to correct variations in transfection efficiency. As control, cells were transfected with 1 μg of either the pA3 Luc or pTATA-tk-Luc reporters. Cells were cotransfected with 2 μg of Stat3Y705-F when indicated. Total amount of transfected DNA was standardized by adding the empty pcDNA3.1 vector. […] Triplicate samples were analyzed for each datum point. Differences between experimental groups were analyzed by ANOVA followed by Tukey test between groups.

mouse cyclin D1 promoter = assay: ChIP of Stat3 and ErbB-2 on the mouse cyclin D1 promoter in C4HD cells; assay type: cell-based; conditions: MPA 30 min
Procedure: as §3, §4

ErbB-2 [6] = assay: ErbB-2 cellular localization (subcellular fractionation/immunoblot, confocal microscopy) in T47D cells; assay type: cell-based, human; conditions: MPA treatment of T47D cells, 15 to 60 min
Procedure: as §1, §2

cyclin D1 = assay: Cyclin D1 protein levels by Western blot in C4HD cells; assay type: cell-based, mouse; conditions: MPA treatment of C4HD cells
Procedure: as §5, §6

Stat3 [7] = assay: Stat3 phosphorylation and nuclear translocation in C4HD cells; assay type: cell-based, mouse; conditions: MPA treatment of C4HD cells
Procedure: as §7
siRNAs targeting ErbB-2, Stat3, and Pr were synthesized by Dharmacon, Inc (Lafayatte, Colo.) (ErbB-2siRNA: 5′GAUGGUGCUUACUCAUUGA3′ (SEQ ID NO:8), designed to specifically knockdown mouse ErbB2 but not human ErbB-2; Stat3siRNA: 5′[…]3′ (SEQ ID NO:9) targets mouse Stat3; and 5′[…]3′ (SEQ ID NO:10) targets human Stat3; PRsiRNA: 5′[…]3′(SEQ ID NO:11)). […] Transfection of siRNAs duplexes was performed by using the DharmaFECT transfection reagent following the manufacturer's direction for 3 days. For reconstitution experiments cotransfection of 25 nM ErbB-2 siRNA with 2 μg expression vectors was performed using DharmaFECT Duo transfection reagent (Dharmacon).
(§8) Cells grown on glass coverslips were fixed and permeabilized in ice-cold methanol and were then blocked with PBS 1% BSA. ErbB-2 was localized using either a rabbit polyclonal (C-18) or a mouse monoclonal (F-11) ErbB-2 antibody (Santa Cruz Biotechnology) and Stat3 was detected using a mouse monoclonal antibody (124H6, Cell Signaling), followed by incubation with a goat anti-rabbit IgG-Alexa 488 (Molecular Probes, Eugene, Oreg.) secondary antibody for ErbB-2 (C-18) and with a rhodamine conjugated goat anti-mouse secondary antibody (Jackson ImmunoResearch Laboratories, West Grove, Pa.) for both ErbB2 (F-11) and Stat3. Negative controls were carried out using PBS instead of primary antibodies, or 5× competitive peptide (Santa Cruz Biotechnology) when ErbB-2 (C-18) was used. When cells were transfected with hErbB-2ΔNLS, green fluorescent protein from this expression vector was visualized by direct fluorescence imaging. […] FIGS. 2A, 3B and C, illustrate a few cells representative of the ones examined. Cells were analyzed using a Nikon Eclipse E800 confocal laser microscopy system (22).

Stat3 [8] = assay: Stat3 phosphorylation and nuclear translocation in T47D cells; assay type: cell-based, human; conditions: MPA treatment of T47D cells
Procedure: as §7, §8

CC(=O)O[C@]1(C(C)=O)CC[C@H]2[C@@H]3C[C@H](C)C4=CC(=O)CC[C@]4(C)[C@H]3CC[C@@]21C [MPA, Medroxyprogesterone acetate]
ErbB-2 nuclear translocation (ErbB-2 [1]): resulted in ErbB-2 nuclear localization; also recorded: induced a strong ErbB-2 protein nuclear translocation
occupancy by Stat3 and ErbB-2 of the human cyclin D1 promoter (human cyclin D1 promoter): striking increase
ErbB-2 phosphorylation at Tyr 1272 and Tyr 927 (ErbB-2 [2]): induces a rapid phosphorylation
increase in cyclin D1 promoter activity (cyclin D1 promoter [3]): 3 fold
ErbB-2 phosphorylation at Tyr 1222 or Tyr 877 (ErbB-2 [4]; PR-null T47D cells (T47D-Y)): no effect
ErbB-2 phosphorylation at Tyr 1222 and Tyr 877 (ErbB-2 [4]; T47D-Y cells transfected with human PR-B (T47D-Y-PR-B)): markedly enhanced
increase in cyclin D1 promoter activity (cyclin D1 promoter [5]): 3 fold
binding of nuclear Stat3 and ErbB-2 to the mouse cyclin D1 promoter (mouse cyclin D1 promoter): significant and specific
ErbB-2 nuclear translocation (ErbB-2 [6]): resulted in ErbB-2 nuclear localization; also recorded: induced a strong ErbB-2 protein nuclear translocation
cyclin D1 protein levels (cyclin D1): significant increase
Stat3 nuclear translocation (Stat3 [7]; 30 and 60 min): induced nuclear translocation of Stat3; also recorded: present at the nuclear compartment and strongly phosphorylated at Tyr 705
nuclear colocalization of ErbB-2 and Stat3 (Stat3 [7]; 30 min, confocal): strong nuclear colocalization
Stat3 nuclear translocation (Stat3 [8]; 30 and 60 min): induced nuclear translocation of Stat3; also recorded: present at the nuclear compartment and strongly phosphorylated at Tyr 705
nuclear colocalization of ErbB-2 and Stat3 (Stat3 [8]; 30 min, confocal): strong nuclear colocalization
